The values below come from patent publication US20070066543A1, “Treatment of tay sachs or sandhoff diseases by enhancing hexosaminidase activity” (The Hospital For Sick Children, priority 2003, published 2007).

Molecules are shown by their SMILES. pKi: −log10 of the molar value. Read-outs that look alike come from different tables or passages of the source.

For one data set, the target named is human hexosaminidase A (Homo sapiens, UniProt P06865+P07686). Description: Ki on human hexosaminidase A. Format: biochemical.
In data set [1] the target is T1, hexosaminidase from the bacterial species Streptomyces plicatus (Sp. Hex.) (Streptomyces plicatus, UniProt O85361).
T1 sequence (O85361 1-506): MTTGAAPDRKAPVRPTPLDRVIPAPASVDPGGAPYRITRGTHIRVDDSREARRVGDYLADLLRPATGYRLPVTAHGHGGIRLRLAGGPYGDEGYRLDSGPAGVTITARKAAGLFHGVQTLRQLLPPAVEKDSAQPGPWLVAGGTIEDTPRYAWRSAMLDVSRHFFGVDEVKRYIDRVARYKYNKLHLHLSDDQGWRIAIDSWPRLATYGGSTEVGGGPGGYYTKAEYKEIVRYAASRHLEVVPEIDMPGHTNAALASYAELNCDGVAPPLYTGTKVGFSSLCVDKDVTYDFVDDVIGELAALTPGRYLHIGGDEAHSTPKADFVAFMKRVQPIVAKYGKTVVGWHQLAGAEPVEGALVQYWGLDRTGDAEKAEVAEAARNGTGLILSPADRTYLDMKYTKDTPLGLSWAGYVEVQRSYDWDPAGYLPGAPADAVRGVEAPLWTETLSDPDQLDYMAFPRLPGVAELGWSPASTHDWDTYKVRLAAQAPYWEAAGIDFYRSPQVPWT
Particulars: value carries reference superscript 56; cited from earlier work.

Data set [2] concerns the target T1, hexosaminidase from the bacterial species Streptomyces plicatus (Sp. Hex.). The data set can be described thus: Ki on bacterial hexosaminidase (MUG assay). Format: biochemical.
For data set [3], the system named is hexosaminidases A plus B (total Hex). Description: Plasma hexosaminidase A plus B in NGT-treated mice (MUG). Format: in vivo. Particulars: CD1 mice, 10, 40 or 100 mg i.p., 2 days later.
Description: (§1) Plasma levels of hexosaminidases A plus B and hexosaminidase A alone were measured by the fluorescent assay described above, using MUG and MUGS as substrates respectively. β-mannosidase was similarly assayed using 4-methylumbelliferyl-β-D-mannopyranoside (MUM) as substrate.
The target in data set [4] is T2, hexosaminidase B (Homo sapiens, UniProt P07686).
T2 construct: from tissue; host or cells: human placenta
Description: Denaturation of hexosaminidase B by guanidine hydrochloride. Format: biochemical.

The subject of data set [5] is hexosaminidase A in ASD fibroblasts. Description: Hexosaminidase activity in adult Sandhoff (ASD) fibroblasts grown with compound. The class given is cell-based, human. Particulars: ASD cells. The method, then: Fibroblast cell lines obtained from homozygous adult onset Tay-Sachs (ATSD), heterozygous adult onset Tay-Sachs (Het ATSD), infantile Tay-Sachs (ITSD and 4917), adult Sandhoff (ASD) and infantile Sandhoff (ISD) were cultured in the presence of various concentrations of ACAS and then examined for hexosaminidase A activity as described above. ACAS treatment gave increased hexosaminidase A activity in ATSD, ASD and ISD cells.

Data set [6] has as its system hexosaminidase A in ITSD fibroblasts. The data set can be described thus: MUGS hydrolysis in infantile Tay-Sachs (ITSD) fibroblasts grown with compound. Format: cell-based, human.
Description: Fibroblast cell lines from an unaffected patient (WT, 4212), from a patient diagnosed with the chronic (adult) form of TSD and homozygous for the mutation G269S (ATSD, 1766 or 17662) and from a fetus with the acute (infantile) form of TSD (ITSD, 2317) were grown in a-MEM (Invitrogen) supplemented with 10% FCS, and antibiotics Pen/Strep (Invitrogen) at 37° C. in a CO2 incubator. 17662: A fibroblast cell line (17662) from an adult-onset Tay-Sachs patient homozygous for the most common point mutation associated with the disease, Gly 269 Ser in the α subunit of hexosaminidase A, was obtained from Department of Pediatrics, University of Saskatoon.
The effect of inhibitors on hexosaminidase A activity in fibroblast cells was evaluated using two formats (96- or 6-wells). For the dose response curves and kinetics of increased hexosaminidase A activity in the presence or absence of each compound, cells grown in 96 well tissue culture plates (Falcon) were used. […] Each concentration point of the compounds was evaluated in triplicate.
Following 3-7 days of incubation at 37° C. in the presence or absence of the compound being tested, intracellular hexosaminidase A activity was determined. […] Hexosaminidase A activity in lysates was measured using 25 μL of 3.2 mM MUGS in CP buffer with incubation at 37° for 1 hr. Afterwards, 250 μL of 0.1M 2-amino-2-methyl-1-propanol (pH 10.5) was used to stop the reaction and increase the fluorescence of the methyl umbelliferyl product, Fluorescence was read with a Perkin-Elmer LS50B Luminescence Spectrometer equipped with a sipper and using excitation wavelength of 365 nm and emission wavelength of 450 nm. For dose response and kinetic experiments, the relative increase in hexosaminidase A activity was expressed as the average fluorescence reading from three or four wells, with cells grown in the presence of compound divided by the average fluorescent reading from a minimum of four wells, with cells grown in the absence any compound. […]
The target in data set [7] is T2, hexosaminidase B. Description: Heat denaturation of hexosaminidase B at 60° C. Particulars: 60° C. up to 40 minutes, 2.4 μm NAG-thiazoline, MUG. Format: biochemical.
Description: The effect of NAG-thiazoline on heat denaturation of human hexosaminidase B was also examined. The enzyme was incubated at 60° C. for up to 40 minutes in the presence or absence of 2.4 μm NAG-thiazoline and its activity was then assayed as described above using MUG as substrate.
For data set [8], the target named is T3, hexosaminidase A/S in ISD cells (Homo sapiens, UniProt P06865).
T3 construct: endogenous in cells; host or cells: infantile Sandhoff (ISD) patient fibroblasts
T3 sequence (P06865 89-529): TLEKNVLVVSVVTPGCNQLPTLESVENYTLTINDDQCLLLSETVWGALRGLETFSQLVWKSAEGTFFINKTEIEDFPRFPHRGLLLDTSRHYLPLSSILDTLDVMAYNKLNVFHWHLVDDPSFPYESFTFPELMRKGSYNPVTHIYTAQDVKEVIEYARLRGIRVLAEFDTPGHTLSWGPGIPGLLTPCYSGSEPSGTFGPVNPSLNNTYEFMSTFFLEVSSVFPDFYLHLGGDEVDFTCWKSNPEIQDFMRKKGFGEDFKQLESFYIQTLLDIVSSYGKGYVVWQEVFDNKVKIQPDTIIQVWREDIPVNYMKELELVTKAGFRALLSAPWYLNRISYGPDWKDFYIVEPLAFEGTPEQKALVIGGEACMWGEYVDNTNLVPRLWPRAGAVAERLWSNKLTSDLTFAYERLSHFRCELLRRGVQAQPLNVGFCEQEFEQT
T3 sequence (P06865 23-74 limits assumed): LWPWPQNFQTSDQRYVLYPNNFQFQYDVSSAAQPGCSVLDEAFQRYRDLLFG
Description: Hexosaminidase activity in infantile Sandhoff (ISD) fibroblasts grown with compound. The class given is cell-based.
Description: Cells were washed and lysed in Na Phosphate buffer pH 6.1. The lysates were divided into three equal aliquots (25 μl). To each aliquot, 25 μl of either MUGS ( 3.2 mM) or MUP (3 mg/ml) in 20 mM citrate phosphate buffer pH 4.3 was added. Reactions were incubated at 37° C. for 30-60 min. and stopped with 200 μl of 0.1M MAP buffer. Fluorescence was read using Molecular Devices.
Gemini EM MAX with excitation and emission set to 365 nm and 450 nm, respectively. The activity of Hexosaminidase A/S was measured using MUGS hydrolysis and acid phosphatase activity was measured using methylumbelliferyl phosphate (MUP).

A further data set relates to hexosaminidase A plus B. The data set can be described thus: Brain hexosaminidase A plus B in NGT-treated mice. Format: in vivo. Particulars: 40 mg s.c. every 4 days for 15 days.
The target of data set [9] is hexosaminidase A in wild type fibroblasts (Homo sapiens, UniProt P06865+P07686). Description: Hexosaminidase A activity (MUGS) in wild type fibroblasts grown with compound. Format: cell-based.
Description: (§2) The effect of inhibitors on hexosaminidase A activity in fibroblast cells was evaluated using two formats (96- or 6-wells). For the dose response curves and kinetics of increased hexosaminidase A activity in the presence or absence of each compound, cells grown in 96 well tissue culture plates (Falcon) were used. To ensure that equal numbers of cells were seeded in each well, trypsinized cells were diluted to give 50% confluence when plated and 200 μL aliquoted into each well of the plate. Cells grown for longer than 5 days were supplemented with fresh medium. […] Each concentration point of the compounds was evaluated in triplicate.
Following 3-7 days of incubation at 37° C. in the presence or absence of the compound being tested, intracellular hexosaminidase A activity was determined. Medium was removed, cells were washed with PBS twice and lysed using 60 μL of 10 mM citrate phosphate buffer pH 4.5 (CP buffer) containing 0.5% human serum albumin and 0.5% Triton X-100. Cells were solubilized at room temperature for 15 min, and subsequently 25 μL of lysate was transferred to a new 96 well plate. Hexosaminidase A activity in lysates was measured using 25 μL of 3.2 mM MUGS in CP buffer with incubation at 37° for 1 hr. Afterwards, 250 μL of 0.1M 2-amino-2-methyl-1-propanol (pH 10.5) was used to stop the reaction and increase the fluorescence of the methyl umbelliferyl product, Fluorescence was read with a Perkin-Elmer LS50B Luminescence Spectrometer equipped with a sipper and using excitation wavelength of 365 nm and emission wavelength of 450 nm. For dose response and kinetic experiments, the relative increase in hexosaminidase A activity was expressed as the average fluorescence reading from three or four wells, with cells grown in the presence of compound divided by the average fluorescent reading from a minimum of four wells, with cells grown in the absence any compound. To control for plate to plate variability, control (untreated) cells were included with each 96 well plate.
Subsequently, hexosaminidase A activity was assayed using a MUGS assay as described above. […]
The next data set relates to β-mannosidase. The data set can be described thus: Serum/plasma β-mannosidase in NGT-treated mice (MUM). Format: in vivo.
For a further data set, the system named is adult mice. The data set can be described thus: Toxicity studies in adult mice. The class given is in vivo.
Data set [10] relates to fibroblasts from a chronic TSD patient. Particulars: human, 5 days.
Description: as §2
Where [11] appears, read: adult male CD1 mice, 40 mg/mouse i.v. or s.c. every four days up to 30 days.

hexosaminidase A in wild type fibroblasts, sequence (P07686 315-556 limits assumed, one chain of several): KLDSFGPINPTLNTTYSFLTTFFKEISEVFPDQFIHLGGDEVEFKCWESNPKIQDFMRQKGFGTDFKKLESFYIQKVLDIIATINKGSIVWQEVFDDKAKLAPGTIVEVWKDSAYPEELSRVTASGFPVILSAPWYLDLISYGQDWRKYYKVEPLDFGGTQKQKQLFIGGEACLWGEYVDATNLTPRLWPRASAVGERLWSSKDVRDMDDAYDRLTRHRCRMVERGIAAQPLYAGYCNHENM
hexosaminidase A in wild type fibroblasts, sequence (P07686 122-311 limits assumed, one chain of several): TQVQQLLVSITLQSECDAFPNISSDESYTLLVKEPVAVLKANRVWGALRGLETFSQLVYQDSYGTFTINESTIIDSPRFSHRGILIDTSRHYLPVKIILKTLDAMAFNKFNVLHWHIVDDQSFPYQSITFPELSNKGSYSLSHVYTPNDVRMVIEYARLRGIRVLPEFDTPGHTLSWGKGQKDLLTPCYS
hexosaminidase A in wild type fibroblasts, sequence (P07686 50-107 partner limits assumed, one chain of several): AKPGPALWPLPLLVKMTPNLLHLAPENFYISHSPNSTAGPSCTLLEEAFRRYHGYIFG
human hexosaminidase A, sequence (P07686 315-556 limits assumed, one chain of several): as the sequence (P07686 315-556 limits assumed, one chain of several) above
human hexosaminidase A, sequence (P07686 122-311 limits assumed, one chain of several): as the sequence (P07686 122-311 limits assumed, one chain of several) above
human hexosaminidase A, sequence (P07686 50-107 partner limits assumed, one chain of several): as the sequence (P07686 50-107 partner limits assumed, one chain of several) above
T2 sequence (P07686 315-556 limits assumed): as the sequence (P07686 315-556 limits assumed, one chain of several) above
T2 sequence (P07686 122-311 limits assumed): as the sequence (P07686 122-311 limits assumed, one chain of several) above
T2 sequence (P07686 50-107 partner limits assumed): as the sequence (P07686 50-107 partner limits assumed, one chain of several) above
Description for β-mannosidase: as §1

For `CC1=NC2[C@@H](O)[C@@H](O)C(CO)O[C@H]2S1` (stereo partly drawn) [NAGal-thiazoline (2.6), N-acetyl galactosamine-thiazoline], the “mode of inhibition of hexosaminidase A” value at human hexosaminidase A is listed as “competitive inhibitors”. For the same compound, the pKi in [1] is 4.00.

Regarding `CC(=O)NC1NCCC(O)C1O` (stereo not drawn) [XylNAc-isofagomine•HCI (2.7), XylNAc-isofagomine•HCI], the pKi was 4.05 on human hexosaminidase A (read-out: Ki Hex A) and 4.42 in data set [2].

For `CC1=NC2[C@@H](O)[C@H](O)C(CO)O[C@H]2S1` (stereo partly drawn) [NGT, N-acetylglucosamine-thiazoline], the “plasma hexosaminidase A plus B (total Hex) level” value in [3] is given as “unchanged”. For the same compound, the “protection of hexosaminidase B against denaturation by guanidine hydrochloride” value on hexosaminidase B [4] is given as “protect”. Further, at human hexosaminidase A, the “mode of inhibition of hexosaminidase A” value is recorded as “competitive inhibitors”. Further, the “hexosaminidase A and S activity” value in data set [5] (NGT) is on record as “increased”. Moreover, the pKi in [1] was 4.70. Besides, the “MUGS hydrolysis with increasing concentration” value in [6] (ITSD cells) is reported as “decline”. The “hexosaminidase B activity after heat denaturation versus control” value at hexosaminidase B [7] is reported as “preserved greater hexosaminidase B activity than seen in the control”. In addition, in [8] (2 days, varying concentrations), the “activity of Hexosaminidase A/S (MUGS)” value was “increased”. For the same compound, the “hexosaminidase S activity” value in data set [8] (NGT) is “increased”. Besides, the “brain hexosaminidase A plus B” value in the data set on hexosaminidase A plus B was “essentially unchanged”. Also, the “increase in hexosaminidase A activity” value in data set [9] (WT fibroblasts, NGT 3 mM) was “two fold”. In addition, the “plasma β-mannosidase level” value in the data set on β-mannosidase (CD1 mice, 10, 40 or 100 mg i.p., 2 days later) is given as “unchanged”. In addition, the “serum βD mannosidase levels versus control” value in the data set with β-mannosidase (mice, 10, 40 or 100 mg i.p., 3 to 4 days after treatment) is given as “generally the same”. In addition, in the data set on adult mice (setting [11]), the “acute or sub-acute toxicity” value was “No acute or sub-acute toxicity was observed” and the “histological examination of autopsied tissues” value is on record as “no changes”. In addition, in the data set on adult mice (adult mice, 10, 40 or 100 mg i.p.), the signs of toxicity entry was “None of the mice treated with inhibitors showed any signs of toxicity”.

In the case of `CC(=O)NC1CN2CCC(O)C2C(O)C1O` (stereo not drawn) [ACAS, 6-acetamido-6-deoxy-castanospermine], the “hexosaminidase A activity” value in data set [5] (various concentrations of ACAS) is given as “increased”; in data set [6] (ITSD fibroblasts, all concentrations) it was “decreased”; in data set [6] (infantile Tay-Sachs cells, ACAS 4 days, MUGS), “not”; in [8] (various concentrations of ACAS), “increased”; in data set [9] (WT fibroblasts, all concentrations), “decreased”; in [9] (wild type cells, ACAS 4 days, MUGS), “increased”.

For `CC(=O)N[C@@H]1[C@@H](O)[C@@H](O)[C@@H](CO)O[C@H]1O` [GalNAc, N-acetyl-β-D-galactosamine], the “concentration at which cell lysis occurred” value in data set [10] is > 200000 µM.
